Our source for the LD50, IC50 and Solubility values is patent US4946779A, “Pseudo-aminosugars, their production and use” (Takeda Chemical Industries, Ltd., priority 1981, dated 1990).

Bounds are passed on as bounds.

The test system of one series is rats. Description: Toxicity, LD50 in rats. It is filed as in vivo.
Series [1] deals with maltase prepared from porcine intestinal mucosa. Description: maltase inhibitory activity, maltose as substrate. The series is classed as biochemical. As to conditions: substrate 0.05 M maltose, read-out: IC50 (M), concentration of 50% inhibition. The procedure: (§1) The inhibitory activities of the compounds of this invention against α-glucosidase (yeast, type I, produced by Sigma Chemical Co.,U.S.A.)as well as maltase and saccharase prepared from porcine intestinal mucosa (prepared in accordance with the procedure as described by B. Borgstroom and A. Dahlgvist in Acta Chem. Scand.; 12, 1997-2006, (1958)), when maltose and sucrose are used as a substrate, are determined by adding to 0.25 ml of a solution of an enzyme prepared by diluting suitably with 0.02 M phosphate buffer (pH 6.8) 0.5 ml of a solution of an inhibitory substance to be tested in the same buffer and 0.25 ml of 0.05 M maltose or 0.05 M sucrose as the substrate in the same buffer allowing the mixture to react at 37° C. for 10 minutes, then adding 3 ml of Glucose B-Test Reagent (a glucose oxidase reagent for measurement of glucose, produced by Wako Pure Chemical Co., Japan), further warming the mixture at 37° C. for 20 minutes and measuring the absorbance of the reaction solution at 505 nm.

The next series is described as follows: Solubility in solvents. The series is classed as physicochemical.
The target of series [2] is T1, saccharase prepared from porcine intestinal mucosa (Sus scrofa, UniProt P56729).
T1 construct: sucrase is the C-terminal subunit cleaved from the SI precursor, paired with isomaltase
Description: saccharase inhibitory activity, sucrose as substrate. The series is classed as biochemical. The following applies: substrate 0.05 M sucrose, read-out: IC50 (M), concentration of 50% inhibition. The procedure:
as §1

[3] abbreviates: in ethanol, ethyl acetate, chloroform, acetone.
Where [4] appears, read: in water, dimethylsulfoxide, methanol.

T1 sequence (P56729 with tags, fused parts or gaps): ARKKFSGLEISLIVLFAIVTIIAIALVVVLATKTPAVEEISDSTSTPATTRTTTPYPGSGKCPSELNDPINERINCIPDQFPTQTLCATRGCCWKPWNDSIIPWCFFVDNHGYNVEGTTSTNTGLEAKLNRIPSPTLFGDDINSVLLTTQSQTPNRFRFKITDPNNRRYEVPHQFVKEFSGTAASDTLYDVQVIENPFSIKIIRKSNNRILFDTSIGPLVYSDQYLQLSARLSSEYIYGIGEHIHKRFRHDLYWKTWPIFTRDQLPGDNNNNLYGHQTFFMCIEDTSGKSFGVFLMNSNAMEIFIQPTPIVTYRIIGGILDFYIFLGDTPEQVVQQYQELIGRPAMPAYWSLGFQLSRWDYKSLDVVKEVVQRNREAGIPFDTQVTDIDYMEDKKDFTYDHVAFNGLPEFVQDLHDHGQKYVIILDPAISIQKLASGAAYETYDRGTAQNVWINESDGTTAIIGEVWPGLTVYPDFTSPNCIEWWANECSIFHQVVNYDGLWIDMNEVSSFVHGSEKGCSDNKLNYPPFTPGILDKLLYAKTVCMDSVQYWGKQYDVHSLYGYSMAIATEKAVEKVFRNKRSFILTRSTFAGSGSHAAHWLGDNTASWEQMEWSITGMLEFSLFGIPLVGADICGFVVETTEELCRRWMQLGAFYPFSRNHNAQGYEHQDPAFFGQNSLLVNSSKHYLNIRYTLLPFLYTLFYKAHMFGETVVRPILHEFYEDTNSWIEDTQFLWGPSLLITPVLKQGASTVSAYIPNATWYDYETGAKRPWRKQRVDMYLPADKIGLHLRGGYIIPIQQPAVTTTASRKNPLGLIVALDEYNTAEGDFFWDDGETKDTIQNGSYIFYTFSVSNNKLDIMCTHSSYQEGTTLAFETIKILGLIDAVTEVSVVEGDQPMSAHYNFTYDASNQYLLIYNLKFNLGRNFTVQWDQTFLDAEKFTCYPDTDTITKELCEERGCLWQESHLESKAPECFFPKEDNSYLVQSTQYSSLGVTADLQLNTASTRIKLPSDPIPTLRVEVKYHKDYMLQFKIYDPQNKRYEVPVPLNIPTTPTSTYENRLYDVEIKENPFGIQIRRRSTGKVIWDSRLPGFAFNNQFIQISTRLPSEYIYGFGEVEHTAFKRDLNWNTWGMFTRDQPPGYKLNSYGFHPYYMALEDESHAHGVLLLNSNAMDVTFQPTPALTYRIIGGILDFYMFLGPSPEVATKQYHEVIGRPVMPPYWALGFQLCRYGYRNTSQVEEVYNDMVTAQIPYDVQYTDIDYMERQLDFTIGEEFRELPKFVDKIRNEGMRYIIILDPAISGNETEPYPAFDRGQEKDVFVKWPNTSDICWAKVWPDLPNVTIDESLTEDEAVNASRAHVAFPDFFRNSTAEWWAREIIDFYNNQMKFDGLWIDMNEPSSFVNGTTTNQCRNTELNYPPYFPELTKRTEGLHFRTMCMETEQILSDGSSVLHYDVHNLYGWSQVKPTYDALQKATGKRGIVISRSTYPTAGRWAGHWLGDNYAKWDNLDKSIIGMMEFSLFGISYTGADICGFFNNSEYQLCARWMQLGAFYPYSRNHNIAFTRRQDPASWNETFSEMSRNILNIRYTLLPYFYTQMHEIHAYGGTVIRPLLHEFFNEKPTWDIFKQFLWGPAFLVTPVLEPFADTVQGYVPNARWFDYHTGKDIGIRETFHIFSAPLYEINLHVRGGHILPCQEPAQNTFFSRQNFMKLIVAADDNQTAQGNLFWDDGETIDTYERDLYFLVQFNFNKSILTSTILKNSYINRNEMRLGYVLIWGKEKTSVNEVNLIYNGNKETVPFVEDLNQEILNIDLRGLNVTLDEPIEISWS

In the series with rats, `NC1CC(O)(CO)C(O)C(O)C1O` (centres unmarked) [compound [I], 5-amino-1-hydroxymethyl-1,2,3,4-cyclohexanetetrol] yielded an LD50 of at least 500 mg.

As to `N[C@H]1C[C@](O)(CO)C(O)C(O)C1O` (some centres unmarked) [epivaliolamine], the IC50 in series [1] was found to be 0.00014 M. The results for the Solubility result in “Solubility in solvents” (setting [3]) and in the series “Solubility in solvents” (setting [4]) were “Sparing soluble or insoluble” and “Soluble”, respectively.

As to `N[C@H]1C[C@](O)(CO)[C@@H](O)[C@H](O)[C@H]1O` [valiolamine, 1L(1S)-(1(OH), 2,4,5/1(CH2 OH),3)-5-amino-1-hydroxymethyl-1,2,3,4-cyclohexanetetrol], the results for the IC50 in series [1] and in series [2] were 2.2e-06 M and 4.9e-08 M, respectively. The Solubility result was “Sparingly soluble or insoluble” in “Solubility in solvents” (setting [3]) and “Soluble” in the series “Solubility in solvents” (setting [4]).
